{"source": "patent US20140343000A1", "about": "(priority 2011, published 2014)", "note": "pEC50: −log10 of the molar value.", "data": [{"test_system": "recombinant NL4-3 virus (Renilla luciferase in nef, Gag P373S; NLRluc) in MT-2 cells", "experiment": "whole plant or invertebrate", "type": "cell-based, HIV", "settings": "Renilla, NL43, luciferase activity in cells infected for 4-5 days with NLRluc recombinants, serial dilutions of inhibitor; class symbols (key in Table 1); read-out: EC50", "how_it_was_run": "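Inhibitor potency against the reporter virus comes from reduced luciferase activity in infected MT-2 cells exposed to a dilution series of compound over 4-5 days.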", "values": [{"smiles": "C=C(C)[C@@H]1CC[C@]2(NCCN3CCN(S(=O)(=O)c4ccc(F)cc4)CC3)CC[C@]3(C)[C@H](CC[C@@H]4[C@@]5(C)CC=C(c6ccc(C(=O)O)cc6)C(C)(C)[C@@H]5CC[C@]43C)[C@@H]12", "note": "[Example B50, 4-((1R,3aS,5aR,5bR,7aR,11aS,11bR,13aR,13bR)-3a-((2-(4-((4-fluorophenyl)sulfonyl)piperazin-1-yl)ethyl)amino)-5a,5b,8,8,11a-pentamethyl-1-(prop-1-en-2-yl)-2,3,3a,4,5,5a,5b,6,7,7a,8,11,11a,11b,12,13,13a,13b-octadecahydro-1H-cyclopenta[a]chrysen-9-yl)benzoic acid]", "pEC50": "> 7.00"}, {"smiles": "C=C(C)[C@@H]1CC[C@]2(NCCN3CCN(S(=O)(=O)c4ccc(C(=O)O)cc4)CC3)CC[C@]3(C)[C@H](CC[C@@H]4[C@@]5(C)CC=C(c6ccc(C(=O)O)cc6)C(C)(C)[C@@H]5CC[C@]43C)[C@@H]12", "note": "[Example B51, 4-((4-(2-(((1R,3aS,5aR,5bR,7aR,11aS,11bR,13aR,13bR)-9-(4-carboxyphenyl)-5a,5b,8,8,11a-pentamethyl-1-(prop-1-en-2-yl)-2,3,3a,4,5,5a,5b,6,7,7a,8,11,11a,11b,12,13,13a,13b-octadecahydro-1H-cyclopenta[a]chrysen-3a-yl)amino)ethyl)piperazin-1-yl)sulfonyl)benzoic acid]", "pEC50": "> 7.00"}, {"smiles": "C=C(C)[C@@H]1CC[C@]2(NCCN3CCN(S(=O)(=O)c4ccc5c(c4)OCCO5)CC3)CC[C@]3(C)[C@H](CC[C@@H]4[C@@]5(C)CC=C(c6ccc(C(=O)O)cc6)C(C)(C)[C@@H]5CC[C@]43C)[C@@H]12", "note": "[Example B52, 4-((1R,3aS,5aR,5bR,7aR,11aS,11bR,13aR,13bR)-3a-((2-(4-((2,3-dihydrobenzo[b][1,4]dioxin-6-yl)sulfonyl)piperazin-1-yl)ethyl)amino)-5a,5b,8,8,11a-pentamethyl-1-(prop-1-en-2-yl)-2,3,3a,4,5,5a,5b,6,7,7a,8,11,11a,11b,12,13,13a,13b-octadecahydro-1H-cyclopenta[a]chrysen-9-yl)benzoic acid]", "pEC50": "> 7.00"}, {"smiles": "C=C(C)[C@@H]1CC[C@]2(NCCN3CCN(C(=O)C4CCCCC4)CC3)CC[C@]3(C)[C@H](CC[C@@H]4[C@@]5(C)CC=C(c6ccc(C(=O)O)cc6)C(C)(C)[C@@H]5CC[C@]43C)[C@@H]12", "note": "[Example B53, 4-((1R,3aS,5aR,5bR,7aR,11aS,11bR,13aR,13bR)-3a-((2-(4-(cyclohexanecarbonyl)piperazin-1-yl)ethyl)amino)-5a,5b,8,8,11a-pentamethyl-1-(prop-1-en-2-yl)-2,3,3a,4,5,5a,5b,6,7,7a,8,11,11a,11b,12,13,13a,13b-octadecahydro-1H-cyclopenta[a]chrysen-9-yl)benzoic acid]", "pEC50": "> 7.00"}, {"smiles": "C=C(C)[C@@H]1CC[C@]2(NCCN3CCN(C(=O)C4CCC4)CC3)CC[C@]3(C)[C@H](CC[C@@H]4[C@@]5(C)CC=C(c6ccc(C(=O)O)cc6)C(C)(C)[C@@H]5CC[C@]43C)[C@@H]12", "note": "[Example B54, 4-((1R,3aS,5aR,5bR,7aR,11aS,11bR,13aR,13bR)-3a-((2-(4-(cyclobutanecarbonyl)piperazin-1-yl)ethyl)amino)-5a,5b,8,8,11a-pentamethyl-1-(prop-1-en-2-yl)-2,3,3a,4,5,5a,5b,6,7,7a,8,11,11a,11b,12,13,13a,13b-octadecahydro-1H-cyclopenta[a]chrysen-9-yl)benzoic acid]", "pEC50": "> 7.00"}, {"smiles": "C=C(C)[C@@H]1CC[C@]2(NCCN3CCN(C(=O)C4CCCC4)CC3)CC[C@]3(C)[C@H](CC[C@@H]4[C@@]5(C)CC=C(c6ccc(C(=O)O)cc6)C(C)(C)[C@@H]5CC[C@]43C)[C@@H]12", "note": "[Example B55, 4-((1R,3aS,5aR,5bR,7aR,11aS,11bR,13aR,13bR)-3a-((2-(4-(cyclopentanecarbonyl)piperazin-1-yl)ethyl)amino)-5a,5b,8,8,11a-pentamethyl-1-(prop-1-en-2-yl)-2,3,3a,4,5,5a,5b,6,7,7a,8,11,11a,11b,12,13,13a,13b-octadecahydro-1H-cyclopenta[a]chrysen-9-yl)benzoic acid]", "pEC50": "> 7.00"}, {"smiles": "C=C(C)[C@@H]1CC[C@]2(NCCN3CCN(C(=O)CC4CCCC4)CC3)CC[C@]3(C)[C@H](CC[C@@H]4[C@@]5(C)CC=C(c6ccc(C(=O)O)cc6)C(C)(C)[C@@H]5CC[C@]43C)[C@@H]12", "note": "[Example B56, 4-((1R,3aS,5aR,5bR,7aR,11aS,11bR,13aR,13bR)-3a-((2-(4-(2-cyclopentylacetyl)piperazin-1-yl)ethyl)amino)-5a,5b,8,8,11a-pentamethyl-1-(prop-1-en-2-yl)-2,3,3a,4,5,5a,5b,6,7,7a,8,11,11a,11b,12,13,13a,13b-octadecahydro-1H-cyclopenta[a]chrysen-9-yl)benzoic acid]", "pEC50": "> 7.00"}, {"smiles": "C=C(C)[C@@H]1CC[C@]2(NCCN3CCN(C(=O)CC4CCCCC4)CC3)CC[C@]3(C)[C@H](CC[C@@H]4[C@@]5(C)CC=C(c6ccc(C(=O)O)cc6)C(C)(C)[C@@H]5CC[C@]43C)[C@@H]12", "note": "[Example B57, 4-((1R,3aS,5aR,5bR,7aR,11aS,11bR,13aR,13bR)-3a-((2-(4-(2-cyclohexylacetyl)piperazin-1-yl)ethyl)amino)-5a,5b,8,8,11a-pentamethyl-1-(prop-1-en-2-yl)-2,3,3a,4,5,5a,5b,6,7,7a,8,11,11a,11b,12,13,13a,13b-octadecahydro-1H-cyclopenta[a]chrysen-9-yl)benzoic acid]", "pEC50": "> 7.00"}, {"smiles": "C=C(C)[C@@H]1CC[C@]2(NCCN3CCN(C(=O)C(C)c4ccccc4)CC3)CC[C@]3(C)[C@H](CC[C@@H]4[C@@]5(C)CC=C(c6ccc(C(=O)O)cc6)C(C)(C)[C@@H]5CC[C@]43C)[C@@H]12", "note": "(stereo partly drawn) [Example B58, 4-((1R,3aS,5aR,5bR,7aR,11aS,11bR,13aR,13bR)-5a,5b,8,8,11a-pentamethyl-3a-((2-(4-(2-phenylpropanoyl)piperazin-1-yl)ethyl)amino)-1-(prop-1-en-2-yl)-2,3,3a,4,5,5a,5b,6,7,7a,8,11,11a,11b,12,13,13a,13b-octadecahydro-1H-cyclopenta[a]chrysen-9-yl)benzoic acid]", "pEC50": "> 7.00"}, {"smiles": "C=C(C)[C@@H]1CC[C@]2(NCCN3CCN(C(=O)CC(C)C)CC3)CC[C@]3(C)[C@H](CC[C@@H]4[C@@]5(C)CC=C(c6ccc(C(=O)O)cc6)C(C)(C)[C@@H]5CC[C@]43C)[C@@H]12", "note": "[Example B59, 4-((1R,3aS,5aR,5bR,7aR,11aS,11bR,13aR,13bR)-5a,5b,8,8,11a-pentamethyl-3a-((2-(4-(3-methylbutanoyl)piperazin-1-yl)ethyl)amino)-1-(prop-1-en-2-yl)-2,3,3a,4,5,5a,5b,6,7,7a,8,11,11a,11b,12,13,13a,13b-octadecahydro-1H-cyclopenta[a]chrysen-9-yl)benzoic acid]", "pEC50": "> 7.00"}, {"smiles": "C=C(C)[C@@H]1CC[C@]2(NCCN3CCN(C(=O)CC)CC3)CC[C@]3(C)[C@H](CC[C@@H]4[C@@]5(C)CC=C(c6ccc(C(=O)O)cc6)C(C)(C)[C@@H]5CC[C@]43C)[C@@H]12", "note": "[Example B60, 4-((1R,3aS,5aR,5bR,7aR,11aS,11bR,13aR,13bR)-5a,5b,8,8,11a-pentamethyl-1-(prop-1-en-2-yl)-3a-((2-(4-propionylpiperazin-1-yl)ethyl)amino)-2,3,3a,4,5,5a,5b,6,7,7a,8,11,11a,11b,12,13,13a,13b-octadecahydro-1H-cyclopenta[a]chrysen-9-yl)benzoic acid]", "pEC50": "> 7.00"}]}]}
